We go through 25 compounds from ChEMBL document CHEMBL4359919, “Discovery and synthesis of 3- and 21-substituted fusidic acid derivatives as reversal agents of P-glycoprotein-mediated multidrug resistance” (Eur J Med Chem, 2019).

The source made the active and inactive calls. The rule behind the calls is not given here.

Data set [1] addresses T1, ATP-dependent translocase ABCB1 (Homo sapiens, UniProt P08183). In words: Reversal of P-gp-mediated multidrug resistance in human KBV cells assessed as potentiation of paclitaxel-induced cytotoxicity by measuring cell survival at 5 uM after 72 hrs by MTT assay (reference value: 100.58 +/- 7.78%). Type of data set: cell-based. For orientation: Tetrazolium dyes change colour on reduction, which living cells bring about.

Data set [2] can be described thus: Cytotoxicity against human KBV cells assessed as cell survival at 5 uM after 72 hrs by MTT assay relative to control. Type of data set: cell-based. The note with it: read-out: Survival.
The target of data set [3] is T1, ATP-dependent translocase ABCB1. In words: Reversal of P-gp-mediated multidrug resistance in human KBV cells assessed as potentiation of paclitaxel-induced cell cycle arrest by measuring accumulation at G2/M phase at 5 to 10 uM after 24 hrs by RNase/propidium iodide staining based flow cytometry. For orientation: A flow cytometer gives signals particle by particle.

For data set [4] the target is unchanged. In words: Reversal of P-gp-mediated multidrug resistance in human KBV cells assessed as potentiation of paclitaxel-induced apoptosis after 24 hrs by RNase/propidium iodide staining based flow cytometry. The format is cell-based.
The target is the same in data set [5]. The data set is described as follows: Inhibition of P-gp-mediated Rh-123 efflux in human KBV cells assessed as Rh-123 accumulation at 10 uM preincubated for 2 hrs followed by Rh-123 addition measured after 30 mins by flow cytometry. Type of data set: cell-based. The note with it: 0.5 h.
Data set [6] shares this target. The data set is described as follows: Inhibition of P-gp-mediated Flutax1 efflux in human KBV cells assessed as Flutax1 accumulation at 2 to 10 uM preincubated for 3 hrs followed by Flutax1 addition measured after 1 hr by flow cytometry. The format is cell-based.
A further data set is filed under the species Homo sapiens. The data set is described as follows: Downregulation of P-gp protein expression in human KBV cells at 5 to 10 uM after 24 hrs by western blot analysis. Type of data set: functional, cell-based. In general terms: Immunoblotting shows a protein as a band on a membrane.
Data set [7] addresses T1, ATP-dependent translocase ABCB1. The data set is described as follows: Stimulation of P-gp ATPase activity (unknown origin) assessed as increase in ATP consumption at 0.5 to 1 mM preincubated for 5 mins followed by Mg-ATP addition by P-gp-Glo luminescence assay.

T1 sequence (P08183 whole entry): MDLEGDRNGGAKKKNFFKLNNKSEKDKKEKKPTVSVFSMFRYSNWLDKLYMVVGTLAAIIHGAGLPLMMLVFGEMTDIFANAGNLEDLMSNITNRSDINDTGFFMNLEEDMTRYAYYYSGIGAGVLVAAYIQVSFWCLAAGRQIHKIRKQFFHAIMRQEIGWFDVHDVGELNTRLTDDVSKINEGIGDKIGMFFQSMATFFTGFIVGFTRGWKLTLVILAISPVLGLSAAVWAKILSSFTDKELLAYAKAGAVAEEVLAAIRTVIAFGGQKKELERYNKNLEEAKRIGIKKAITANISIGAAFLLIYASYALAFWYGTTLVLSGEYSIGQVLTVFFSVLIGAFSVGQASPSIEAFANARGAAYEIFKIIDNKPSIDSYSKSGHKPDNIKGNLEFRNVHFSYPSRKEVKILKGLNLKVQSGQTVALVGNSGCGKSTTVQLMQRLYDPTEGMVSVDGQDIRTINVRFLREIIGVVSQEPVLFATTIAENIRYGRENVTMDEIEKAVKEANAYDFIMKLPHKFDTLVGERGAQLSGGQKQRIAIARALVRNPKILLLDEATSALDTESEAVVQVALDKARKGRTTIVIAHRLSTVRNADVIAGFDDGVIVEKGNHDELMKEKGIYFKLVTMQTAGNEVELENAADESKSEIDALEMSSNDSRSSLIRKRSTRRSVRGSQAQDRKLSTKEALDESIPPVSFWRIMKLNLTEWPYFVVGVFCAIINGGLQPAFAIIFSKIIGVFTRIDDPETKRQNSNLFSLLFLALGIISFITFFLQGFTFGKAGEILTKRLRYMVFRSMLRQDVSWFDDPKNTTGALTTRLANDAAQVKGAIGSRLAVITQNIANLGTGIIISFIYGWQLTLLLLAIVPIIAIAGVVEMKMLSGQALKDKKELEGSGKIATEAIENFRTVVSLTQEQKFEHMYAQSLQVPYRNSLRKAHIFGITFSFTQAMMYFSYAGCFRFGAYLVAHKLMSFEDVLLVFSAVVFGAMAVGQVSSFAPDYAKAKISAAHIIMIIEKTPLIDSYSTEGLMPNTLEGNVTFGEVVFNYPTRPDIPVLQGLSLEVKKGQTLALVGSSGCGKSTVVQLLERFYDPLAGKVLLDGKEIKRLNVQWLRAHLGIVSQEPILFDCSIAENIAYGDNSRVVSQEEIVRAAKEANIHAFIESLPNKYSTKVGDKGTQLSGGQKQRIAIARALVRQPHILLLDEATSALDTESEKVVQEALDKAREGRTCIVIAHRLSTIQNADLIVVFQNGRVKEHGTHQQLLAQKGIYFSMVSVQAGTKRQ

Take `CC(=O)O[C@H]1C[C@@]2(C)[C@@H](C[C@@H](O)[C@H]3[C@@]4(C)CC[C@@H](OC(=O)c5ccccc5C(=O)N5CCOCC5)[C@@H](C)[C@@H]4CC[C@@]32C)/C1=C(\CCC=C(C)C)C(=O)OCc1ccccc1`: in data set [1], the Survival was 37.96%. In data set [2], the viability at 72 h, 5 µM was determined as 76%.

For the compound `CC(=O)O[C@H]1C[C@@]2(C)[C@@H](C[C@@H](O)[C@H]3[C@@]4(C)CC[C@@H](OC(=O)CCCCO[N+](=O)[O-])[C@@H](C)[C@@H]4CC[C@@]32C)/C1=C(\CCC=C(C)C)C(=O)OCc1ccccc1`, the Survival in data set [1] was found to be 96.92%. In addition, the viability at 72 h, 5 µM in data set [2] worked out at 107%.

Take `CC(=O)O[C@H]1C[C@@]2(C)[C@@H](C[C@@H](O)[C@H]3[C@@]4(C)CC[C@@H](OC(=O)c5ccccc5C(=O)OCCc5ccc(OCCO[N+](=O)[O-])cc5)[C@@H](C)[C@@H]4CC[C@@]32C)/C1=C(\CCC=C(C)C)C(=O)OCc1ccccc1`: in data set [1], the Survival is listed as 90.45%. The viability at 72 h, 5 µM in data set [2] amounted to 85.9%.

Consider `CC(=O)O[C@H]1C[C@@]2(C)[C@@H](C[C@@H](O)[C@H]3[C@@]4(C)CC[C@@H](OC(=O)CCC(=O)Oc5ccc(CCO[N+](=O)[O-])cc5)[C@@H](C)[C@@H]4CC[C@@]32C)/C1=C(\CCC=C(C)C)C(=O)OCc1ccccc1`, for which, in data set [1], the Survival is recorded as 99.95%. For the same compound, the viability at 72 h, 5 µM in data set [2] was determined as 114%.

Regarding `CC(=O)O[C@H]1C[C@@]2(C)[C@@H](CC(=O)[C@H]3[C@@]4(C)CCC(=O)[C@@H](C)[C@@H]4CC[C@@]32C)/C1=C(\CCC=C(C)C)C(=O)OCc1ccccc1`, the Survival in data set [1] is 27.6%. Further, the viability at 72 h, 5 µM in data set [2] came out at 96.6%.

As for `CC(=O)O[C@H]1C[C@@]2(C)[C@@H](C[C@@H](O)[C@H]3[C@@]4(C)CC[C@@H](O)[C@@H](C)[C@@H]4CC[C@@]32C)/C1=C(\CCC=C(C)C)C(=O)O` [FUSIDIC ACID], the Survival in data set [1] is 87.77%. In addition, the viability at 72 h, 5 µM in data set [2] was determined as 84.7%.

Turning to `CC(=O)O[C@H]1C[C@@]2(C)[C@@H](C[C@@H](O)[C@H]3[C@@]4(C)CC[C@@H](OC(=O)CCC(=O)Nc5ccc(N)cc5)[C@@H](C)[C@@H]4CC[C@@]32C)/C1=C(\CCC=C(C)C)C(=O)OCc1ccccc1`, the Survival in data set [1] amounted to 22.26%. For the same compound, in data set [2], the viability at 72 h, 5 µM came out at 136%.

For `CC(=O)O[C@H]1C[C@@]2(C)[C@@H](C[C@@H](O)[C@H]3[C@@]4(C)CC[C@@H](OC(=O)c5ccccc5C(=O)N5CCN(C)CC5)[C@@H](C)[C@@H]4CC[C@@]32C)/C1=C(\CCC=C(C)C)C(=O)OCc1ccccc1`, the Survival in data set [1] is recorded as 69.5%. Also, the viability at 72 h, 5 µM in data set [2] came out at 100%.

As for `CC(=O)O[C@H]1C[C@@]2(C)[C@@H](C[C@@H](O)[C@H]3[C@@]4(C)CC[C@@H](OC(=O)c5ccccc5C(=O)N5CCCCC5)[C@@H](C)[C@@H]4CC[C@@]32C)/C1=C(\CCC=C(C)C)C(=O)OCc1ccccc1`, the Survival in data set [1] stood at 36.37%. Besides, the viability at 72 h, 5 µM in data set [2] was found to be 110%.

As for `CC(=O)O[C@H]1C[C@@]2(C)[C@@H](C[C@@H](O)[C@H]3[C@@]4(C)CC[C@@H](OC(=O)CCC(=O)N5CCCCC5)[C@@H](C)[C@@H]4CC[C@@]32C)/C1=C(\CCC=C(C)C)C(=O)OCc1ccccc1`, the Survival in data set [1] is reported as 35.31%. In data set [2], the viability at 72 h, 5 µM came to 122%.

Consider `CC(=O)O[C@H]1C[C@@]2(C)[C@@H](C[C@@H](O)[C@H]3[C@@]4(C)CC[C@@H](OC(=O)c5ccccc5C(=O)Nc5cccc(N)c5)[C@@H](C)[C@@H]4CC[C@@]32C)/C1=C(\CCC=C(C)C)C(=O)OCc1ccccc1`, for which the Survival in data set [1] was 29.28%. In addition, in data set [2], the viability at 72 h, 5 µM was found to be 95.8%.

Consider `CC(=O)O[C@H]1C[C@@]2(C)[C@@H](C[C@@H](O)[C@H]3[C@@]4(C)CC[C@@H](O)[C@@H](C)[C@@H]4CC[C@@]32C)/C1=C(\CCC=C(C)C)C(=O)Oc1ccc(CCO[N+](=O)[O-])cc1`, for which the Survival in data set [1] was 45.82%. Moreover, the viability at 72 h, 5 µM in data set [2] came out at 83.7%.

Turning to `CC(=O)O[C@H]1C[C@@]2(C)[C@@H](C[C@@H](O)[C@H]3[C@@]4(C)CC[C@@H](OC(=O)CCC(=O)N5CCN(C)CC5)[C@@H](C)[C@@H]4CC[C@@]32C)/C1=C(\CCC=C(C)C)C(=O)OCc1ccccc1`, the Survival in data set [1] came out at 33.67%. The viability at 72 h, 5 µM in data set [2] was 30.1%.

In the case of `CC(=O)O[C@H]1C[C@@]2(C)[C@@H](C[C@@H](O)[C@H]3[C@@]4(C)CC[C@@H](OC(=O)CCC(=O)Nc5cccc(N)c5)[C@@H](C)[C@@H]4CC[C@@]32C)/C1=C(\CCC=C(C)C)C(=O)OCc1ccccc1`, the Survival in data set [1] is recorded as 24.8%. Also, in data set [2], the viability at 72 h, 5 µM turned out to be 135%.

Consider `CCN1CCN(C(=O)c2ccccc2C(=O)O[C@@H]2CC[C@@]3(C)[C@@H](CC[C@@]4(C)[C@H]3[C@H](O)C[C@H]3/C(=C(\CCC=C(C)C)C(=O)OCc5ccccc5)[C@@H](OC(C)=O)C[C@@]34C)[C@@H]2C)CC1`, for which the Survival in data set [1] stood at 20.76%. The viability at 72 h, 5 µM in data set [2] was determined as 27.3%.

Regarding `CC(=O)O[C@H]1C[C@@]2(C)[C@@H](C[C@@H](O)[C@H]3[C@@]4(C)CC[C@@H](O)[C@@H](C)[C@@H]4CC[C@@]32C)/C1=C(\CCC=C(C)C)C(=O)OCc1ccccc1`, the outcome in data set [3], in data set [4] and in data set [7] was Active. Besides, the Survival in data set [1] is listed as 18.6%. Besides, in data set [2], the viability at 72 h, 5 µM was found to be 92%. Moreover, the “inhibition (INH)” value in data set [5] and in data set [6] was “Active” each time. In the data set listed under Homo sapiens, the outcome was inactive.

As to `CC(=O)O[C@H]1C[C@@]2(C)[C@@H](C[C@@H](O)[C@H]3[C@@]4(C)CC[C@@H](OC(=O)CCCCCO[N+](=O)[O-])[C@@H](C)[C@@H]4CC[C@@]32C)/C1=C(\CCC=C(C)C)C(=O)OCc1ccccc1`, the Survival in data set [1] was 20.79%. Besides, in data set [2], the viability at 72 h, 5 µM came out at 94.1%.

In the case of `COc1ccc(CCN(C)CCCC(C#N)(c2ccc(OC)c(OC)c2)C(C)C)cc1OC` (stereo not given) [VERAPAMIL], the Survival in data set [1] came to 23.05%.

Take `CC(=O)O[C@H]1C[C@@]2(C)[C@@H](CC(=O)[C@H]3[C@@]4(C)CC[C@@H](OC(=O)CCCCCO[N+](=O)[O-])[C@@H](C)[C@@H]4CC[C@@]32C)/C1=C(\CCC=C(C)C)C(=O)OCc1ccccc1`: the Survival in data set [1] was determined as 62.17%. The viability at 72 h, 5 µM in data set [2] is 115%.

Consider `CC(=O)O[C@H]1C[C@@]2(C)[C@@H](C[C@@H](O)[C@H]3[C@@]4(C)CC[C@@H](OC(=O)CCC(=O)OCCc5ccc(OCCO[N+](=O)[O-])cc5)[C@@H](C)[C@@H]4CC[C@@]32C)/C1=C(\CCC=C(C)C)C(=O)OCc1ccccc1`, for which, in data set [1], the Survival is given as 101.31%. Moreover, the viability at 72 h, 5 µM in data set [2] worked out at 110%.

Turning to `CC(=O)O[C@H]1C[C@@]2(C)[C@@H](CC(=O)[C@H]3[C@@]4(C)CC[C@@H](OC(=O)CCCCO[N+](=O)[O-])[C@@H](C)[C@@H]4CC[C@@]32C)/C1=C(\CCC=C(C)C)C(=O)OCc1ccccc1`, the Survival in data set [1] is on record as 20.75%. In data set [2], the viability at 72 h, 5 µM was found to be 112%.

For the compound `CC(=O)O[C@H]1C[C@@]2(C)[C@@H](C[C@@H](O)[C@H]3[C@@]4(C)CC[C@@H](OC(=O)CCC(=O)N5CCOCC5)[C@@H](C)[C@@H]4CC[C@@]32C)/C1=C(\CCC=C(C)C)C(=O)OCc1ccccc1`, the Survival in data set [1] is 31.93%. In data set [2], the viability at 72 h, 5 µM came out at 20.5%.

With `CCN1CCN(C(=O)CCC(=O)O[C@@H]2CC[C@@]3(C)[C@@H](CC[C@@]4(C)[C@H]3[C@H](O)C[C@H]3/C(=C(\CCC=C(C)C)C(=O)OCc5ccccc5)[C@@H](OC(C)=O)C[C@@]34C)[C@@H]2C)CC1`, the Survival in data set [1] came to 34.43%. Also, the viability at 72 h, 5 µM in data set [2] was 99.8%.

Consider `CC(=O)O[C@H]1C[C@@]2(C)[C@@H](C[C@@H](O)[C@H]3[C@@]4(C)CC[C@@H](OC(=O)c5ccccc5C(=O)Nc5ccc(N)cc5)[C@@H](C)[C@@H]4CC[C@@]32C)/C1=C(\CCC=C(C)C)C(=O)OCc1ccccc1`, for which, in data set [1], the Survival is given as 23.58%. Further, the viability at 72 h, 5 µM in data set [2] came out at 118%.

Take `CC(=O)O[C@H]1C[C@@]2(C)[C@@H](C[C@@H](O)[C@H]3[C@@]4(C)CC[C@@H](OC(=O)c5ccccc5C(=O)Oc5ccc(CCO[N+](=O)[O-])cc5)[C@@H](C)[C@@H]4CC[C@@]32C)/C1=C(\CCC=C(C)C)C(=O)OCc1ccccc1`: in data set [1], the Survival stood at 75.04%. Further, the viability at 72 h, 5 µM in data set [2] was found to be 87.5%.
